Patent EP0248999A2, “Uses of enprostil-type prostaglandins in regulating fat and carbohydrate metabolism” (SYNTEX (U.S.A.) INC., priority 1986, dated 1987)
Read-outs that look alike come from different tables or passages of the source.

Tests used:
[1] = system: serum insulin and glucose levels; experiment: Example 5: double-blind cross-over meal study, serum insulin and glucose; assay type: in vivo, human; settings: enprostil orally 30 minutes before meal
Procedure: (§1) The following non-limiting examples will further clarify the nature of this invention. In these examples, serum lipids and cholesterol were measured by standard methods ("Manual of Laboratory Operations, Lipid Research Clinic Program, Lipid and Lipoprotein Analysis", DHEW Publication No. (NIH) 75-628 (1974)); serum insulin, GIP, and C-peptide were measured by radioimmunoassay; and apoproteins were measured by radial immunodiffusion.
A group of 10 subjects participated in a double-blind cross-over study. Either a placebo or enprostil was orally given 30 minutes before meal time and levels of insulin and glucose were measured after the meal.

serum glucose levels = experiment: Example 8 (headed 'Example'): 30-day dosing study with standard breakfast, serum glucose; assay type: in vivo, human; settings: enprostil 35 pg BID
Procedure: 20 subjects participated in a study lasting up to 44 days. On day -8, all 20 subjects received a placebo capsule, followed 30 minutes later by a standard breakfast with serial blood measurements. Eight days later all 20 subjects were randomized to either enprostil 35 pg BID or placebo, and continued dosing for a period of 30 days. On days 1, 8, and 30, they were given enprostil followed 30 minutes later by a standard breakfast with serial blood measurements.

serum cholesterol levels [2] = experiment: Example 3: 44-day placebo-controlled dosing study, total and LDL-cholesterol; assay type: in vivo, human
Procedure: as §1
In a 44-day dosing study, 20 subjects participated in a placebo-controlled trial. Ten subjects received enprostil and the remainder received placebo. Data were obtained from 9 of the 10 subjects who received enprostil. […] This subject was normocholesterolemic at baseline and no dietary manipulation was attempted.

serum cholesterol levels [3] = experiment: Example 2, Table 2: 9-day placebo-controlled cross-over study in normocholesterolemic subjects, serum lipids and apoproteins; assay type: in vivo, human; design: Mean reduction of cholesterol / Mean reduction of LDL-cholesterol / Mean reduction of HDL-cholesterol / Mean reduction of apoprotein-A / Mean reduction of apoprotein-B: concentration or dose not given beside the values; settings: 9-day cross-over
Procedure: as §1
To further clarify the nature of these changes in a prospective manner, normal subjects were dosed with enprostil for periods ranging from 8 days up to 44 days in duration.
In a 9-day placebo-controlled cross-over study, with each subject serving as their own control, the mean reduction in cholesterol, LDL-cholesterol, and HDL-cholesterol are shown in Table 2.
These findings are surprising since the subjects in this study were normocholesterolemic at baseline (that is serum cholesterol under 250 mg/dl) and were on a free diet with no attempt to regulate dietary cholesterol intake.

serum cholesterol = experiment: Example 1: oral enprostil, serum cholesterol in patients with high cholesterol baseline; assay type: in vivo, human; settings: five weeks
Procedure: as §1
A group of 20 patients with high cholesterol baseline were orally given 70 µg enprostil twice daily. […] The median change for the group was 16 percent reduction, with 60 percent of the patients tested showing a significant reduction in serum cholesterol.
A second group of 16 patients with a high cholesterol baseline were given […] enprostil twice daily.
A third group of 13 individuals were given a placebo. […] The median change was a 2 percent increase in cholesterol.

serum glucose = experiment: Example 7: 25 g intravenous glucose tolerance test; assay type: in vivo, human; settings: 25 g intravenous glucose 30 minutes after enprostil, day 2 and day 10
Procedure: (§2) 10 normal subjects participated in a 10-day placebo-controlled cross-over study, receiving either placebo or 70 µg enprostil per day. On day 1 and day 9 of each study phase they orally received 5 g of d-xylose, a sugar not normally metabolized in man. Blood measurements for serum xylose were made at -30, 0, +30, 60, 120, 180, 240, and 300 minutes following ingestion.of xylose. On day 2 and day 10 of each study phase, the subjects received a 25 g intravenous glucose tolerance test, 30 minutes following enprostil administration.

insulin and GIP = experiment: Example 9: fatty meal study, insulin and GIP; assay type: in vivo, human
Procedure: as §1
(§3) Six male subjects participated in a double-blind cross-over study. Either placebo or enprostil […] was orally given 30 minutes before a fatty meal consisting of approximately 600 Kcal, 90% of which was fat. Following the meal, serum triglycerides and total serum cholesterol were measured at serial time points before and after removal of serum chylomicrons by ultracentrifugation. Serum HDL-cholesterol was measured only before chylomicron removal.

serum cholesterol levels [4] = experiment: Example 2, Table 1: oral enprostil BID in hypercholesterolemic patients versus placebo; assay type: in vivo, human
Procedure: as §1

serum GIP levels = experiment: Example 4: double-blind cross-over meal study, serum GIP; assay type: in vivo, human; settings: 70p.g enprostil orally 30 minutes before meal; placebo four-fold increase
Procedure: as §1
Serum GIP levels are known to increase after meals.
Groups of 10 subjects participated in a double-blind, cross-over study. Either a placebo or 70p.g enprostil was orally given 30 minutes before meal time and levels of GIP were measured.

serum triglycerides = experiment: Example 9: double-blind cross-over fatty meal study, serum and chylomicron triglycerides; assay type: in vivo, human
Procedure: as §1, §3

[5] = system: serum insulin and glucose levels; experiment: Example 6: eight-day cross-over study with standard breakfast, serum glucose, insulin and GIP; assay type: in vivo, human; settings: 70 µg orally
Procedure: as §1
Eight healthy male subjects received either […] enprostil per day or placebo for eight days followed by a washout period of one week and a subsequent second eight-day administration during which they received the opposite drug regime.
On day 1 and day 8 of each study period the subjects reported to the clinical studies unit fasting and were administered 70 µg of enprostil orally in a glass of water. Thirty minutes later they were administered a standard breakfast and blood samples were drawn at -30 (just prior to enprostil administration), O (at the time of enprostil administration), 15, 30, 60, 90, 120 and 180 minutes.

serum xylose = experiment: Example 7: oral d-xylose absorption test in 10-day cross-over study; assay type: in vivo, human; settings: 5 g d-xylose orally
Procedure: as §2

atherosclerotic plaque = experiment: Example 10: cholesterol-fed rabbit, aortic atherosclerotic plaque; assay type: in vivo, New Zealand white rabbits; settings: Group B: 2% cholesterol diet, enprostil 10 pg/Kg/day constant oral infusion, 56 days; vehicle Group A 25%
Procedure: Fortyfive New Zealand white rabbits were allocated to three groups, A, B, and C, each group consisting of 15 rabbits. Group A was fed a 2% cholesterol diet and received vehicle administered by constant oral infusion at 62 ul/day using an Alza minipump. Group B was also fed a 2% cholesterol diet but, via the minipump, received enprostil at an infusion rate of 10 pg/Kg/day. Group C was fed a normal diet and received no treatment.
At the end of 56 days of the above treatments, rabbits were sacrificed and their aortic tissue was subjected to pathologic examination. In Group C, the placebo control group, the percent of aortic area covered by atherosclerotic plaque was under 5%. In the rabbits from Group A, which had received the high cholesterol diet with vehicle infusion, 25% of the aortic area was covered with atherosclerotic plaque. These findings contrasted with those for the Group B rabbits, which in addition to the high cholesterol diet had received enprostil by continuous infusion . In these animals, only 10% of aortic tissue was covered with atheromatous plaque. This finding is statistically significant from the Group A rabbits.

insulin levels = settings: cited from earlier work
[6] = Animal antisecretory assays; assay type: in vivo; settings: compared with enprostil (isomer mixture)
[7] = of nine evaluable subjects receiving enprostil
[8] = one subject, baseline to day 44
[9] = enprostil 35 pg before fatty meal
[10] = administered by tube to the duodenum

COC(=O)CCC=C=CCC1C(=O)CC(O)C1C=CC(O)COc1ccccc1 (racemic) [enprostil, methyl (±)-7-[(1R*,2R*,3R*)-3-hydroxy-2-[(E)-(3R*)-3-hydroxy-4-phenoxy-l-butenyl]-5-oxocyclopentyl]-4,5-heptadienoate]
raise in glucose levels after the meal [1]: no statistically or clinically significant raise
increase of insulin levels after the meal ([1]; placebo five-fold): two-fold
peak blood glucose levels versus placebo (serum glucose levels; standard breakfast): substantially reduced
time of appearance of peak blood glucose levels (serum glucose levels; standard breakfast 30 minutes after dose, placebo approximately 60 minutes): ~90 min
individuals with reduction in total and LDL-cholesterol throughout the entire 44-day period (serum cholesterol levels [2]; [7]): Three
subjects showing a reduction of total cholesterol by 16 days (serum cholesterol levels [2]; [7]): Six
total serum cholesterol at day 44 (serum cholesterol levels [2]; one subject (most dramatic example), mean baseline 208 mg/dl, normocholesterolemic, no dietary manipulation): 123 mg/dL
LDL-cholesterol at day 44 (serum cholesterol levels [2]; one subject, baseline 140 mg/dl): 75 mg/dL
reduction in LDL-cholesterol (serum cholesterol levels [2]; [8]): 46%
reduction of total serum cholesterol (serum cholesterol levels [2]; [8]): 43%
change in total triglycerides (serum cholesterol levels [3]): essentially no change
Mean reduction of HDL-cholesterol (serum cholesterol levels [3]; free diet): -9.2%
Mean reduction of LDL-cholesterol (serum cholesterol levels [3]; free diet): -21.0%
Mean reduction of apoprotein-A (serum cholesterol levels [3]; free diet): -1.8%
Mean reduction of apoprotein-B (serum cholesterol levels [3]; free diet): -16.0%
Mean reduction of cholesterol (serum cholesterol levels [3]; free diet): -15.0%
median change (reduction) of serum cholesterol (serum cholesterol; 35 pg enprostil twice daily, 16 patients with high cholesterol baseline): eleven
number of patients showing greater than 10 percent serum cholesterol reduction (serum cholesterol; 35 pg twice daily, 16 patients): eight
number of patients showing greater than 25 percent reduction (serum cholesterol; 35 pg twice daily, 16 patients): one
number of patients showing no change in serum cholesterol (serum cholesterol; 35 pg twice daily, 16 patients): seven
patients showing serum cholesterol reduction (serum cholesterol; 35 pg twice daily, 16 patients): 56%
median change (reduction) of serum cholesterol (serum cholesterol; 70 µg enprostil orally twice daily, 20 patients with high cholesterol baseline): 16%
number of patients showing greater than 10 percent reduction (serum cholesterol; 70 µg twice daily, 20 patients): eleven
number of patients showing greater than 25 percent reduction (serum cholesterol; 70 µg twice daily, 20 patients): one
number of patients showing no change in serum cholesterol (serum cholesterol; 70 µg twice daily, 20 patients): eight
patients tested showing a significant reduction in serum cholesterol (serum cholesterol; 70 µg twice daily, 20 patients): 60%
serum glucose by time curves following intravenous glucose administration, enprostil versus placebo (serum glucose): no marked differences
insulin levels following the fatty meal (insulin and GIP; enprostil 35 pg, at 30, 60, and 90 minutes): significantly lower
GIP levels following the fatty meal (insulin and GIP; enprostil 35 µg, up to 360 minutes, p<0.05): virtually completely suppressed
Cholesterol % decrease (combined 2-12 week of dosing) (serum cholesterol levels [4]; 7 µg BID, 9 hypercholesterolemic subjects): 67%
Median % change (cholesterol) (serum cholesterol levels [4]; 7 µg BID, 9 subjects): -11%
Cholesterol % decrease (combined 2-12 week of dosing) (serum cholesterol levels [4]; 35 µg BID, 28 hypercholesterolemic subjects): 64%
Median % change (cholesterol) (serum cholesterol levels [4]; 35 µg BID, 28 subjects): -13%
Cholesterol % decrease (combined 2-12 week of dosing) (serum cholesterol levels [4]; 70 µg BID, 28 hypercholesterolemic subjects): 64%
Median % change (cholesterol) (serum cholesterol levels [4]; 70 µg BID, 28 subjects): -17%
increase in serum GIP 60 minutes after the meal stimulus (serum GIP levels): no increase
maximal postprandial total serum triglycerides before chylomicron removal (serum triglycerides; enprostil 35 pg 30 minutes before fatty meal, at 360 minutes, placebo 160 mg/dl at 120 minutes): 105 mg/dL
appearance of postprandial serum (serum triglycerides; [9]): remained clear
chylomicron triglyceride content (in words) (serum triglycerides; [9]): virtually complete suppression
chylomicron-associated triglyceridemia through 120 minutes (serum triglycerides; [9]): complete absence
fasting baseline total serum triglycerides before chylomicron removal (serum triglycerides; enprostil 35 pg phase, mean, placebo 86 mg/dl): 83 mg/dL
fasting serum triglycerides after chylomicron removal (serum triglycerides; enprostil 35 pg phase, placebo 82 mg/dl): 80 mg/dL
maximal postprandial serum triglycerides after chylomicron removal (serum triglycerides; enprostil 35 pg, 360 minutes, placebo 115 mg/dl (180 minutes)): 89 mg/dL
mean rise of chylomicron triglyceride content over fasting level (serum triglycerides; enprostil 35 pg, at 360 minutes after fatty meal, placebo 46 mg/dl (120 minutes)): 16 mg/dL
serum GIP ([5]; both study days): essentially complete inhibition
serum insulin concentrations for each time point ([5]; day 1 and 8): marked reduction
reduction of area under the serum glucose by time curve compared to the placebo phase ([5]; day 1 and day 8): 15-20%
peak serum xylose levels (serum xylose; 70 µg enprostil per day, days 1 and 9): marked suppression and delay
reduction in the amount of xylose excreted over 5 hours (serum xylose; 70 µg per day): 30%
amount of xylose excreted over 5 hours (serum xylose; 70 µg per day, placebo 1.8g): 1.3 g
aortic tissue covered with atheromatous plaque (atherosclerotic plaque): 10%

CCCCC[C@](C)(O)/C=C/[C@H]1[C@H](O)CC(=O)[C@@H]1C/C=C\CCCC(=O)OC [(15S),15-methyl-PGE2 methyl ester]
insulin levels (insulin levels; [10]): lowered
serum glucose levels (insulin levels; [10]): no change
time to peak serum glucose levels (insulin levels; intraduodenally or intravenously): no change

CCCCC[C@](C)(O)/C=C/[C@H]1[C@H](O)CC(=O)[C@@H]1C/C=C\CCCC(=O)OCC [(15S),15-methyl-PGE2 ethyl ester]
glucose levels (insulin levels; intravenous administration): without affecting
insulin levels (insulin levels; intravenous administration): lowered

COC(=O)CCC=C=CC[C@H]1C(=O)C[C@@H](O)[C@@H]1/C=C/[C@@H](O)COc1ccccc1 (single isomer, unassigned) [R allenic isomer of enprostil]
potency in animal antisecretory assays [6]: increased potency
toxicity in animal antisecretory assays [6]: lower toxicity
